{"source": "paper PMC8333620", "about": "“Novel Tl(III) complexes containing pyridine-2,6-dicarboxylate derivatives with selective anticancer activity through inducing mitochondria-mediated apoptosis in A375 cells” (Scientific Reports, 2021)", "key": {"HFF cells [1]": {"test_system": "HFF cells", "assay": "Intracellular ROS (H2DCF-DA, flow cytometry), HFF", "format": "cell-based, human", "conditions": "highest concentration, 24 h, compared with A375", "procedure": "(§1) The generation of intracellular ROS was evaluated by reactive oxygen species assay kit. 2 mL of A375 cells (1 × 10^6 cells/mL) were induced with C1–C3 (at IC50 concentrations) at 37 °C for 24 h, serum-free medium washed twice. Then, the cells were incubated in 2 mL of serum-free medium containing H2DCF-DA (2 μM) for 30 min at 37 °C, serum-free medium washed twice. Cells were collected and assayed by flow cytometer with excitation wavelength at 489 nm and emission wavelength at 524 nm, and ten thousand events were collected. The DCF fluorescence peak for this cell sample was evaluated and data were analyzed by FlowJo software. This test was performed as explained on HFF cells treatment to C3 (at the highest concentration)[38]."}, "p53": {"test_system": "p53", "assay": "Western blot, p53 in A375 cells", "format": "cell-based, human", "conditions": "A375, IC50 concentrations, 24 h", "procedure": "(§2) After incubation with C1 and C3 at IC50 concentrations for 24 h, A375 cells were harvested and lysed in 150 μL of lysis buffer (149 μL RIPA and 1 μL PMSF), and then placed on ice for 15 min. Total proteins were extracted by centrifuging the cell sample at 10,000 rpm and 4 °C for 10 min. Then about 50 μg of purified proteins were mixed with an equal volume of electrophoresis sample buffer, and the mixture was heated for 10 min. Meanwhile, the equal protein content from the control cells was prepared in the same way. The cell sample (10 μL) was loaded onto 10% SDS-PAGE gels and then transferred onto a microporous polyvinylidene difluoride (PVDF) membrane. The membrane was blocked with 5% BSA in TBST buffer for more than 2 h. After the removal of TBST buffer, membranes were incubated with an appropriate dilution of specific primary antibodies in TBST overnight at 4 °C and then washed with TBST three times. The membranes were incubated with secondary antibodies for 1 h and washed with TBST. The immunoreactive signals were detected using an enhanced chemo-luminance kit (Pierce ECL Western Blotting Substrate) following the procedures given in the user manual[46],[63]."}, "A375 cells [2]": {"test_system": "A375 cells", "assay": "Intracellular ROS (H2DCF-DA, flow cytometry), A375", "format": "cell-based, human", "conditions": "A375, IC50 concentrations, 24 h", "procedure": "as §1"}, "[3]": {"test_system": "HT29 (a human colon adenocarcinoma) cell line", "assay": "MTT cytotoxicity assay, HT29", "format": "cell-based", "conditions": "MTT, 48 h", "procedure": "(§3) In this study, A375 (a human melanoma), HT29 (a human colon adenocarcinoma), and HFF (a human foreskin fibroblast) cell lines were provided from the Pasteur Institute (Iran). […] 10 mM stock solutions of compounds were prepared in DMSO and diluted in a fresh medium for use. The final concentration of DMSO never exceeded 0.1% (v/v). […] Then the medium was replaced with the respective medium containing ligands or Tl(III) complexes at different concentrations and incubated for 48 h. 10 μL of MTT was added and the medium was removed after 4 h of incubation. Finally, the violet crystal was solubilized in 100 μL DMSO and the absorbance was measured at 570 nm. IC50 value was measured by the standard method. The evaluations were carried out in triplicate[21],[23]."}, "Bax/Bcl-2": {"test_system": "Bax/Bcl-2", "assay": "Western blot, Bax/Bcl-2 ratio in A375 cells", "format": "cell-based, human", "conditions": "A375, IC50 concentrations, 24 h", "procedure": "as §2"}, "HFF cells [4]": {"test_system": "HFF cells", "assay": "Mitochondrial membrane potential assay (JC-1), HFF", "format": "cell-based, human", "conditions": "highest concentration, JC-1, 24 h", "procedure": "Mitochondrial membrane potential analysis was determined by fluorescent dye JC-1 staining according to the manufacturer's protocol for the JC-1 assay kit. In brief, 2 mL of A375 cells (1 × 10^5 cells/mL) were treated with IC50 concentrations of C1 and C3 in 6-well plates for […]. Cells were harvested and washed three times with PBS after 24 h of incubation. Then cells were stained with 1 mL of JC-1 stock solution (10 mg/mL). Assays were initiated by incubating A375 cells with JC-1 for 30 min at 37 °C in the dark and detected with a fluorescence microscope. This test was performed as explained on HFF cells treatment to C3 (at the highest concentration)."}, "A375 cells [5]": {"test_system": "A375 cells", "assay": "Apoptosis by Annexin-V/PI staining", "format": "cell-based, human", "conditions": "A375, IC50 concentrations, 24 h", "procedure": "Annexin V-FITC and PI staining (Annexin V/PI) apoptosis detection kit were used for assessing the percentage of dead cells by apoptosis pathway. Briefly, A375 cells were treated with C1 and C3 at IC50 concentrations. After 24 h of incubation, cells were washed with PBS, trypsinized, centrifuged, and re-suspended in 100 μL binding buffer at a concentration of 1 × 10^6 cells/mL, then added 5 μL of annexin V-FITC conjugate (30 min), and 5 μL of Propidium Iodide (PI) to each cell suspension (20 min) in the dark. The samples were analyzed using a flow cytometer (Attune Nxt, Thermo Fisher Scientific-US), and the results were assessed using the FlowJo software."}, "[6]": {"test_system": "HFF (a human foreskin fibroblast) cell line", "assay": "MTT cytotoxicity assay, HFF", "format": "cell-based", "conditions": "MTT, 48 h; read-out: Cytotoxicity (IC50 ± SEM) against HFF", "procedure": "as §3"}, "HFF cells [7]": {"test_system": "HFF cells", "assay": "Cell cycle analysis (PI, flow cytometry), HFF", "format": "cell-based, human", "conditions": "highest concentration, 24 h", "procedure": "A375 cells were seeded in 6-well plates with 1.5 × 10^6 cells /well and treated with the C1 and C3 at IC50 concentrations for 24 h. Cells were trypsinized, collected, and fixed in ice-cold 75% ethanol at − 20 °C overnight. After centrifugation, the fixed cells were rinsed with ice-cold phosphate-buffered saline (PBS) and resuspended in 0.5 mL of PBS containing 100 μg/mL DNase-free RNase A (Thermo Fisher Scientific Biosciences GmbH, St. Leon-Rot, Germany), 50 μg/mL propidium iodide (PI; Sigma Aldrich) in the dark for 30 min. The distribution of the cells in different phases of the cell cycle was determined using flow cytometry (Attune Nxt, Thermo Fisher Scientific-US) and FlowJo software v10.6.1 (https://www.flowjo.com/solutions/flowjo/downloads) was used to analyze the data. This test was performed as explained on HFF cells treatment to C3 (at the highest concentration)[62]."}, "procaspase-9": {"test_system": "procaspase-9", "assay": "Western blot, procaspase-9 in A375 cells", "format": "cell-based, human", "conditions": "A375, IC50 concentrations, 24 h, densitometry", "procedure": "as §2"}, "A375 cells [8]": {"test_system": "A375 cells", "assay": "Cellular uptake of Tl (ICP-MS), A375", "format": "cell-based, human", "conditions": "10 μM, 24 h", "procedure": "A375 cells (1 × 10^7 cells) were treated with 10 μM C1–C3 and Tl(NO3)3.3H2O, respectively, for 24 h at 37 °C, 5% CO2, and 95% air. Cold PBS (phosphate buffer, pH = 7.4) was used for rinsing the cells three times after being collected. Cells were lysed in 1 M NaOH (1 mL) and diluted with 2% (v/v) HNO3 (5 mL) to determine whole-cell thallium content. The amount of thallium taken up by the cells was measured by ICP-MS. The instrument calibrates thallium using a standard solution containing 10, 50, 100, 500, and 1000 ppb thallium. This test was performed as explained on HFF cells treatment to C3[38]."}}}
{"substance": "(4-apyH)[Tl(pydc)(pydcH)2]0.5H2O [C3]", "values": [{"measurement": "production of ROS in HFF cells", "setting": "HFF cells [1]", "result": "much less than what was produced in cancer cells of A375"}, {"measurement": "level of p53", "setting": "p53", "result": "significantly enhanced"}, {"measurement": "ROS level (DCF oxidation), more effective than vehicle control-treated", "setting": "A375 cells [2]", "result": 229.4, "unit": "%"}, {"measurement": "Viability inhibition, HT29", "setting": "[3]; concentration not given", "result": 53.12, "unit": "%"}, {"measurement": "IC50", "setting": "[3]; read-out: Cytotoxicity (IC50 ± SEM) against HT29", "result": "193.2 ± 1.12", "unit": "µM"}, {"measurement": "ratio of Bax/Bcl-2", "setting": "Bax/Bcl-2", "result": 5.25, "unit": "fold"}, {"measurement": "changes in MMP of HFF cells", "setting": "HFF cells [4]", "result": "insignificant changes"}, {"measurement": "apoptosis, more effective than vehicle control-treated", "setting": "A375 cells [5]", "result": 61.66, "unit": "%"}, {"measurement": "early apoptosis (annexin V+/PI-, Q3)", "setting": "A375 cells [5]", "result": 11.47, "unit": "%"}, {"measurement": "late apoptosis (annexin V+/PI+, Q2)", "setting": "A375 cells [5]", "result": 50.19, "unit": "%"}, {"measurement": "IC50", "setting": "[6]", "result": "> 500", "unit": "µM"}, {"measurement": "effect on cell cycle distribution in HFF cells", "setting": "HFF cells [7]", "result": "does not have a remarkable effect on the cellular population in none of the phases"}, {"measurement": "procaspase-9 level compared to control", "setting": "procaspase-9", "result": 110.97, "unit": "%"}, {"measurement": "permeation in A375 cells relative to normal (HFF) cells", "setting": "A375 cells [8]", "result": "almost two times more than normal cells"}]}
